Patent US7914763B1, “Process and apparatus for preparing manganese thiosulfate (MnTS) solution” (Tessenderlo Kerley, Inc., priority 2010, dated 2011)

How the values were obtained:
[1] = pH of the compound as Mn plant nutrient source in water; cited from earlier work
[2] = at 25° C.
Source text: Manganese thiosulfate, also referred to herein as “MnTS”, is a liquid source of Mn with up to 20% concentration.

## O=S(=O)([O-])[O-].[Mn+2] [MnSO4, manganese sulfate]
[1]
  respective pH: 2.8

## manganese carbonate [MnCO3]
[1]
  respective pH: 6.4

## manganese thiosulfate [MnTS]
MnTS prepared by salt exchange of MnSO4 with calcium thiosulfate, evaporated to point of crystal formation, percent by weight
  Mn concentration of saturated solution of MnTS: 5.85 % Mn
Saturated solution, corresponding to measured Mn, percent by weight
  Solubility of MnTS (saturated solution): ~17 % MnTS
Solid from evaporation redissolved in aqueous solution at ambient temperature, calculated from Mn concentration
  Maximum solubility of MnTS: 17-18%
[2]
  pH of solution of manganese thiosulfate: 5-6
